Assay results reported in paper PMC9000801, “Bioactivities and Mode of Actions of Dibutyl Phthalates and Nocardamine from Streptomyces sp. H11809” (Molecules, 2022).

Target: T1, human GSK-3β (Hs GSK-3β) (Homo sapiens, UniProt P49841)
T1 construct: gene GSK3B
Test: Kinase-Glo Plus luminescent kinase assay with recombinant enzyme; Michaelis-Menten and Lineweaver-Burk kinetics
Assay type: biochemical

T1 sequence (P49841 whole entry): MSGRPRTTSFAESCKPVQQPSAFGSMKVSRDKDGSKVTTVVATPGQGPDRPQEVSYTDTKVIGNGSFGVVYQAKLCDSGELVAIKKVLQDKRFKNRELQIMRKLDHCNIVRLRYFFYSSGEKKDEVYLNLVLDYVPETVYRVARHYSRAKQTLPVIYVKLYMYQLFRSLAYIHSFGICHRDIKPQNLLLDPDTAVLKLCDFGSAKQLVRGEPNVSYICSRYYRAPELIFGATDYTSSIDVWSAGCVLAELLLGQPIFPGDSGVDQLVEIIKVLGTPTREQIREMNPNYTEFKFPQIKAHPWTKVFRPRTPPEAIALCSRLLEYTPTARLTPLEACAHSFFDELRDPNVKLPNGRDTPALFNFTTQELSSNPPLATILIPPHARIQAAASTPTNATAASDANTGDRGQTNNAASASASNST

`CCCCOC(=O)c1ccccc1C(=O)OCCCC` [DBP, dibutyl phthalate] was tested. Which IC50 did it give?
Its IC50 is 2000 nM.
